According to the SangsterLogP compilation:

Test: method code SF-HPLC, from DOI: 10.1016/b978-0-08-029222-9.50040-8

Row | SMILES | logP
1 | CCCCN(SN(C)C(=O)ON=C(C)SC)C(=O)c1ccccc1 | 3.4
2 | CCCCOC(=O)N(CCCC)SN(C)C(=O)ON=C(C)SC | 4.2
3 | CNC(=O)ON=C(C)SC | 0.6
4 | CCCC(=O)N(C)SN(C)C(=O)ON=C(C)SC | 2.2
5 | CCCCCCC(=O)N(SN(C)C(=O)ON=C(C)SC)c1ccccc1 | 4.2
6 | CSC(C)=NOC(=O)N(C)SN(C)C(=O)c1ccc(Cl)cc1Cl | 3.2
7 | CCC(=O)N(C)SN(C)C(=O)Oc1cccc2c1OC(C)(C)C2 | 3.2
8 | CSC(C)=NOC(=O)N(C)SN(C)C(=O)c1cccc(Cl)c1 | 2.7
9 | CC(C)C(=O)N(C)SN(C)C(=O)Oc1cccc2c1OC(C)(C)C2 | 3.6
10 | CCN(CC)C(=O)N(C)SN(C)C(=O)ON=C(C)SC | 3.2
11 | CCCCN(SN(C)C(=O)ON=C(C)SC)C(C)=O | 2.4
12 | CCCCCCOC(=O)N(C)SN(C)C(=O)ON=C(C)SC | 4.2
13 | COC(=O)N(C)SN(C)C(=O)O/N=C(\C)SC | 1.4
14 | CSC(C)=NOC(=O)N(C)SN(C)C(=O)c1c(Cl)cccc1Cl | 2.6
15 | CS/C(C)=N\OC(=O)N(C)SN(C)C(=O)c1ccc(C)cc1 | 2.5
16 | CCOC(=O)N(C)SN(C)C(=O)Oc1cccc2c1OC(C)(C)C2 | 3.5
17 | CSC(C)=NOC(=O)N(C)SN(C)C(=O)c1ccccc1 | 2.2
18 | CCCCN(SN(C)C(=O)O/N=C(\C)SC)C(=O)OC | 2.5
19 | CSC(C)=NOC(=O)N(C)SN(C)C(=O)c1ccccc1Cl | 2.5
20 | CSC(C)=NOC(=O)N(C)SN(C)C(=O)OC1CCCCC1 | 3.6

Row | SMILES | logP
21 | CCC(=O)N(C)SN(C)C(=O)ON=C(C)SC | 1.6
22 | COC(=O)N(C)SN(C)C(=O)Oc1cccc2c1OC(C)(C)C2 | 3
23 | CN(SN(C)C(=O)c1ccc(Cl)cc1Cl)C(=O)Oc1cccc2c1OC(C)(C)C2 | 4.9
24 | CSC(C)=NOC(=O)N(C)SN(C)C(=O)ON=C(C)SC | 1.7
25 | CN(SN(C)C(=O)c1ccccc1)C(=O)Oc1cccc2c1OC(C)(C)C2 | 3.5
26 | CSC(C)=NOC(=O)N(C)SN(C(=O)c1ccc(C)cc1)C(C)C | 3.4
27 | CN(SN(C)C(=O)c1ccc(Cl)cc1)C(=O)Oc1cccc2c1OC(C)(C)C2 | 4
28 | CSC(C)=NOC(=O)N(C)SN(C)C(=O)C(C)C | 2.2
29 | CN(SN(C)C(=O)c1ccccc1Cl)C(=O)Oc1cccc2c1OC(C)(C)C2 | 4.1
30 | CCCCCCCCCCOC(=O)N(C)SN(C)C(=O)ON=C(C)SC | 6.2
31 | CSC(C)=NOC(=O)N(C)SN(C)C(=O)c1ccc(Cl)cc1 | 2.6
32 | CSC(C)=NOC(=O)N(C)SN(C)C(=O)C1CC1 | 1.7
33 | CCCC(=O)N(C)SN(C)C(=O)Oc1cccc2c1OC(C)(C)C2 | 3.8
34 | CC(=O)N(C)SN(C)C(=O)Oc1cccc2c1OC(C)(C)C2 | 2.7
35 | CCCCN(SN(C)C(=O)Oc1cccc2c1OC(C)(C)C2)C(=O)OC | 4.6
36 | CCCCCCN(SN(C)C(=O)ON=C(C)SC)C(=O)N(C)C | 3.3
37 | CN(SN(C)C(=O)OC(C)(C)C)C(=O)Oc1cccc2c1OC(C)(C)C2 | 4.3
38 | CS/C(C)=N\OC(=O)N(C)SN(C)C(C)=O | 1.3
39 | CSC(C)=NOC(=O)N(C)SN(C)C(=O)N(C(C)C)C(C)C | 2.6
40 | CSC(C)=NOC(=O)N(C)SN(C)C(=O)c1cccc(C(F)(F)F)c1 | 2.5
